One data set is described as follows: in vitro. The note with it: Chinese hamster, Cytotox. CHO-K1. The format is cell-based.
A short description of data set [1]: Mammalian cytotoxicity assay (resazurin), COS-1 cells. The format is cell-based. The note with it: African green monkey, read-out: Cytotox. COS-1. In a few lines: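 Resazurin read-out (0.042 mg/ml, 2 h at 37° C. then 30 min dark, room temperature; fluorescence 535/590 nm) follows 24-hour compound exposure of overnight-seeded cells, serially diluted. IC50 is the concentration giving 50% growth inhibition.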

The subject of the next data set is gram negative bacteria. Briefly: In vitro anti-bacterial activity assay (broth dilution MIC), gram negative bacteria. The format is cell-based, E. coli. The procedure, abridged: (§1)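 Broth dilution MIC following CLSI M7-A2: compounds serially diluted, log-phase test strains added to final ~5×10^5 CFU/ml, incubated ~18 hours at 35° C in ambient air. Plates read on microplate reader or visually; MIC is lowest concentration inhibiting growth.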
(In broth dilution the organism is exposed to a series of concentrations in liquid medium.)

The test system of a further data set is gram positive bacteria. Briefly: In vitro anti-bacterial activity assay (broth dilution MIC), gram positive bacteria. The format is cell-based, S. aureus. The note with it: 18 h. The procedure, abridged: as §1
The subject of a further data set is 3T3 fibroblast cells. Briefly: In vitro phototoxicity assay (neutral red; UV light-treated vs dark control plates). The format is cell-based. The conditions noted are these: for Photo Toxicity UV Tox50: UV light 50 minutes; for Photo Toxicity Dark Tox50: dark control plate. In a few lines: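 Neutral red viability readout (A535 after EtOH/acetic acid extraction) compares paired plates: one exposed 50 min to UV at 1.6–1.8 mW/cm^2, one held in darkness, both dosed with compound in HBSS and recovered overnight. 3T3 fibroblast cells used; phototoxicity taken as the difference.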

[2] abbreviates: Escherichia coli, 18 h, E. coli D1 209, read-out: Median MIC's G− E. coli D1 209.
The mark [3] stands for this setting: Escherichia coli, 18 h, E. coli MG 1655, read-out: Median MIC's G− E. coli MG 1655.
[4] abbreviates: Escherichia coli, ATCC25922, 18 h, E. coli ATCC 25922, read-out: Median MIC's G− E. coli ATCC 25922.
[5] abbreviates: Pseudomonas aeruginosa, 18 h, P. aeruginosa K201 PAO6609, read-out: Median MIC's G− P. aeruginosa K201 PAO6609.
Where [6] appears, read: Staphylococcus aureus, S. aureus MRSA5, read-out: Median MIC's G+ S. aureus MRSA5.
The mark [7] stands for this setting: Staphylococcus aureus, S. aureus RN450, read-out: Median MIC's G+ S. aureus RN450.
Setting [8] is: Streptococcus pneumoniae, S. pneumoniae 157E-Strep, read-out: Median MIC's G+ S. pneumoniae 157E-Strep.

In brackets after ≈: the same amount, converted by molar mass. Where two headings read alike, the source gives them in different places.

On to `CN(C)[C@@H]1C(O)=C(C(N)=O)C(=O)[C@@]2(O)C(O)=C3C(=O)c4c(O)ccc(C(=O)CNCc5ccco5)c4C[C@H]3C[C@@H]12` [CC], for which the IC50 at 24 h (in “in vitro”; in data set [1]) was more than 44.7 µM each time. Also, the minimum inhibitory concentration (MIC) is 64 mg/L (≈ 116 µM) with gram negative bacteria (setting [2]); 32 mg/L (≈ 58 µM) in the data set on gram negative bacteria (setting [3]); 32 mg/L (≈ 58 µM) in the data set with gram negative bacteria (setting [4]); 64 mg/L (≈ 116 µM) in the data set on gram negative bacteria (setting [5]); 16 mg/L (≈ 29 µM) with gram positive bacteria (setting [6]); 1 mg/L (≈ 1.81 µM) with gram positive bacteria (setting [7]). Besides, in the data set with gram positive bacteria (setting [8]), the MIC amounted to 2 mg/L (≈ 3.63 µM). Also, in the data set with 3T3 fibroblast cells, the “Photo Toxicity UV Tox50” value was more than 144.12 µM. Moreover, in the data set with 3T3 fibroblast cells, the “Photo Toxicity Dark Tox50” value is more than 144.12 µM.

`CN(C)[C@@H]1C(O)=C(C(N)=O)C(=O)[C@@]2(O)C(O)=C3C(=O)c4c(O)ccc(-c5ccc(CNCc6cccnc6)o5)c4C[C@H]3C[C@@H]12` [BI]: the IC50 at 24 h is more than 26 µM in “in vitro” and more than 39.3 µM in data set [1]. In addition, the MIC with gram negative bacteria (setting [2]) stood at 2 mg/L (≈ 3.33 µM); in the data set with gram negative bacteria (setting [3]), 4 mg/L (≈ 6.66 µM); in the data set with gram negative bacteria (setting [4]), 1 mg/L (≈ 1.66 µM); in the data set with gram negative bacteria (setting [5]), 64 mg/L (≈ 107 µM); with gram positive bacteria (setting [6]), 8 mg/L (≈ 13.3 µM); in the data set with gram positive bacteria (setting [7]) it was 0.06 mg/L (≈ 0.0999 µM). Moreover, the minimal inhibitory concentration (MIC) with gram positive bacteria (setting [8]) turned out to be 0.06 mg/L (≈ 0.0999 µM). In the data set with 3T3 fibroblast cells, the “Photo Toxicity UV Tox50” value was more than 126.75 µM. In addition, the “Photo Toxicity Dark Tox50” value in the data set with 3T3 fibroblast cells was more than 126.75 µM.

Regarding `CN(C)[C@@H]1C(O)=C(C(N)=O)C(=O)[C@@]2(O)C(O)=C3C(=O)c4c(O)ccc(C(=O)Cn5ccnc5)c4C[C@H]3C[C@@H]12` [CF], the IC50 at 24 h (in the data set “in vitro”; in data set [1]) was more than 49.9 µM in each case. The minimal inhibitory concentration (MIC) with gram negative bacteria (setting [2]) was determined as 64 mg/L (≈ 122 µM); in the data set on gram negative bacteria (setting [3]), 64 mg/L (≈ 122 µM); in the data set on gram negative bacteria (setting [4]), 64 mg/L (≈ 122 µM); in the data set on gram negative bacteria (setting [5]) it was 64 mg/L (≈ 122 µM); in the data set on gram positive bacteria (setting [6]) it was 64 mg/L (≈ 122 µM); with gram positive bacteria (setting [7]), 4 mg/L (≈ 7.66 µM). The MIC in the data set on gram positive bacteria (setting [8]) came out at 4 mg/L (≈ 7.66 µM). Moreover, in the data set with 3T3 fibroblast cells, the “Photo Toxicity UV Tox50” value is more than 161.01 µM. For the same compound, the “Photo Toxicity Dark Tox50” value in the data set on 3T3 fibroblast cells was more than 161.01 µM.

On to `COC(=O)C1CCN(Cc2ccc(O)c3c2C[C@H]2C[C@H]4[C@H](N(C)C)C(O)=C(C(N)=O)C(=O)[C@@]4(O)C(O)=C2C3=O)CC1` [AK], for which the IC50 at 24 h (in the data set “in vitro”; in data set [1]) was more than 140 µM in each case. Also, the minimal inhibitory concentration (MIC) with gram negative bacteria (setting [2]) came to 4 mg/L (≈ 7.02 µM); with gram negative bacteria (setting [3]) it was 0.5 mg/L (≈ 0.878 µM); with gram negative bacteria (setting [4]), 0.25 mg/L (≈ 0.439 µM); with gram negative bacteria (setting [5]), 64 mg/L (≈ 112 µM); with gram positive bacteria (setting [6]), 2 mg/L (≈ 3.51 µM); in the data set with gram positive bacteria (setting [7]), 0.06 mg/L (≈ 0.105 µM). The minimal inhibitory concentration (MIC) in the data set with gram positive bacteria (setting [8]) is 0.06 mg/L (≈ 0.105 µM). Moreover, in the data set with 3T3 fibroblast cells, the “Photo Toxicity UV Tox50” value is more than 140.07 µM. For the same compound, the “Photo Toxicity Dark Tox50” value in the data set with 3T3 fibroblast cells was more than 140.07 µM.

On to `CN(C)CCC(=O)c1ccc(O)c2c1C[C@H]1C[C@H]3[C@H](N(C)C)C(O)=C(C(N)=O)C(=O)[C@@]3(O)C(O)=C1C2=O` [AV], for which the IC50 at 24 h (in the data set “in vitro”; in data set [1]) was more than 153 µM each time. The MIC was found to be 64 mg/L (≈ 125 µM) in the data set on gram negative bacteria (setting [2]); 16 mg/L (≈ 31.2 µM) with gram negative bacteria (setting [3]); 8 mg/L (≈ 15.6 µM) in the data set on gram negative bacteria (setting [4]); 64 mg/L (≈ 125 µM) with gram negative bacteria (setting [5]); 0.5 mg/L (≈ 0.974 µM) with gram positive bacteria (setting [6]); 0.06 mg/L (≈ 0.117 µM) with gram positive bacteria (setting [7]). Besides, the MIC in the data set on gram positive bacteria (setting [8]) was determined as 0.5 mg/L (≈ 0.974 µM). Besides, the “Photo Toxicity UV Tox50” value in the data set on 3T3 fibroblast cells is more than 153.46 µM. Further, in the data set on 3T3 fibroblast cells, the “Photo Toxicity Dark Tox50” value was more than 153.46 µM.

For `CN(C)CCCCNCc1ccc(O)c2c1C[C@H]1C[C@H]3[C@H](N(C)C)C(O)=C(C(N)=O)C(=O)[C@@]3(O)C(O)=C1C2=O` [CN, (4S,4aS,5aR,12aS)-4-Dimethylamino-7-[(4-dimethylamino-butylamino)-methyl]-3,10,12,12a-tetrahydroxy-1,11-dioxo-1,4,4a,5,5a,6,11,12a-octahydro-naphthacene-2-carboxylic acid amide], the IC50 at 24 h (in “in vitro”; in data set [1]) was more than 138 µM throughout. The MIC in the data set on gram negative bacteria (setting [2]) amounted to 64 mg/L (≈ 118 µM); in the data set with gram negative bacteria (setting [3]) it was 32 mg/L (≈ 59 µM); in the data set on gram negative bacteria (setting [4]), 32 mg/L (≈ 59 µM); in the data set on gram negative bacteria (setting [5]), 64 mg/L (≈ 118 µM); with gram positive bacteria (setting [6]), 64 mg/L (≈ 118 µM); with gram positive bacteria (setting [7]), 16 mg/L (≈ 29.5 µM). The MIC in the data set on gram positive bacteria (setting [8]) turned out to be 32 mg/L (≈ 59 µM). Further, in the data set on 3T3 fibroblast cells, the “Photo Toxicity UV Tox50” value was more than 138.03 µM. Also, the “Photo Toxicity Dark Tox50” value in the data set on 3T3 fibroblast cells is more than 138.03 µM.

A word on the MIC: it is the smallest concentration in the dilution series that meets the test's criterion for growth inhibition.

(Values after patent US20100022483A1, “Substituted Tetracycline Compounds” (Paratek Pharmaceuticals, Inc., priority 2008, published 2010).)
